Starred links: 1 amine or outer side, 2 acyl side, 3 side chain; linkers in the order of their positions; H or OH if unused. Non-standard residues stand in square brackets, D forms with d. Residues, ends and D or L forms follow the SMILES beside them. X1 = CCC(N[*:1])C(C)C(=O)O[C@H](C(=O)[*:2])[C@@H](C)CC; X2 = C[C@H](N[*:1])C(=O)C(C)(C)C(=O)[*:2]; NMeY = CN[C@@H](Cc1ccc(O)cc1)C(=O)O; NMeI = CC[C@H](C)[C@H](NC)C(=O)O; NMeV = CN[C@H](C(=O)O)C(C)C
Key:
P388 = experiment: Cytotoxicity against mouse P388 cells assessed as concentration required for 50% inhibition; format: functional
NCI-H460 = experiment: Cytotoxicity against human NCIH460 cells assessed as concentration required for 50% inhibition; format: functional
SF-295 = experiment: Cytotoxicity against human SF295 cells assessed as concentration required for 50% inhibition; format: functional
BXPC-3 = experiment: Cytotoxicity against human BXPC3 cells assessed as concentration required for 50% inhibition; format: functional
KM-20L2 = experiment: Cytotoxicity against human KM20L2 cells assessed as concentration required for 50% inhibition; format: functional
DU-145 = experiment: Cytotoxicity against human DU145 cells assessed as concentration required for 50% inhibition; format: functional
OVCAR-3 = experiment: Cytotoxicity against human OVCAR-3 cells assessed as concentration required for 50% inhibition; format: functional
MCF7 = experiment: Cytotoxicity against human MCF7 cells assessed as concentration required for 50% inhibition; format: functional
SF-268 = experiment: Cytotoxicity against human SF268 cells assessed as concentration required for 50% inhibition; format: functional
SK-MEL-5 = experiment: Cytotoxicity against human SK-MEL-5 cells assessed as concentration required for 50% inhibition; format: functional
A498 = experiment: Cytotoxicity against human A498 cells assessed as concentration required for 50% inhibition; format: functional
[1] = system: Mycobacterium tuberculosis; experiment: Antibacterial activity against Mycobacterium tuberculosis; format: functional
Vero = experiment: Cytotoxicity against african green monkey Vero cells; format: functional, cell-based; conditions: Chlorocebus sabaeus

| SMILES | Activity (P388) | Activity (NCI-H460) | Activity (BXPC-3) | Activity (KM-20L2) | further results |
| --- | --- | --- | --- | --- | --- |
| NC1=N/C(=C2/CCNC(=O)c3[nH]ccc32)C(=O)N1 [DEBROMOHYMENIALDISINE] | 5 µg/mL | – | – | – | – |
| COc1cc([C@@H]2c3cc4c(cc3C[C@H]3COC(=O)[C@@H]32)OCO4)cc(OC)c1OC [DESOXYPODOPHYLLOTOXIN] | 0.029 µg/mL | 0.0018 µg/mL | 0.00044 µg/mL | 0.0014 µg/mL | Activity (SF-295): 0.00056 µg/mL; Activity (DU-145): 0.0017 µg/mL; Activity (OVCAR-3): 0.0027 µg/mL |
| CS[C@H]1SC[C@H]2C(=O)N(C)[C@@H](C(C)C)C(=O)OC[C@@H](NC(=O)c3cnc4ccccc4n3)C(=O)N[C@@H](C)C(=O)N(C)[C@@H]1C(=O)N(C)[C@@H](C(C)C)C(=O)OC[C@@H](NC(=O)c1cnc3ccccc3n1)C(=O)N[C@@H](C)C(=O)N2C [ECHINOMYCIN] | 0.00147 µg/mL | – | – | – | – |
| O=c1c(-c2ccc(O)cc2)coc2cc(O)cc(O)c12 [GENISTEIN] | – | 1.5 µg/mL | 2.5 µg/mL | 3.7 µg/mL | Activity (MCF7): 2.5 µg/mL; Activity (SF-268): 1.7 µg/mL; Activity (DU-145): 1.9 µg/mL |
| NC1=NC(=O)/C(=C2\CCNC(=O)c3[nH]c(Br)cc32)N1 [HYMENIALDISINE] | 2.4 µg/mL | – | – | – | – |
| COc1cc([C@H]2c3cc4c(cc3C[C@H]3COC(=O)[C@H]32)OCO4)cc(OC)c1OC [ISOPICRODEOXYPODOPHYLLOTOXIN] | <0.01 µg/mL | – | – | – | – |
| C/C1=C\[C@H](C)C[C@H](C)OC(=O)C[C@H](c2ccc(O)cc2)NC(=O)[C@@H](Cc2c(Br)[nH]c3ccccc23)N(C)C(=O)[C@H](C)NC(=O)[C@@H](C)C1 [JASPAMIDE] | 0.008 µg/mL | – | – | – | – |
| CCC1NC(=O)[C@H](C)NC(=O)C(C)(C)C(=O)[C@H](C)NC(=O)[C@H](Cc2ccc(OC)cc2)N(C)C(=O)[C@H](C(C)C)N(C)C(=O)CNC(=O)[C@H]([C@@H](C)CC)N(C)C(=O)CNC(=O)[C@H]([C@@H](C)CC)OC(=O)C1C (stereo not given in full) [MAJUSCULAMIDE C] (cyclo(A[X1]G[NMeI]G[NMeV][NMeY](Me)[X2])) | – | 0.0032 µg/mL | – | 0.0013 µg/mL | Activity (SK-MEL-5): 0.0068 µg/mL; Activity (SF-295): 0.13 µg/mL; Activity (A498): 0.058 µg/mL; Activity (OVCAR-3): 0.51 µg/mL |
| Cl.O[C@]12C=C(c3nccc4c3[nH]c3ccccc34)[C@@H]3CCN(CCCC/C=C\CC1)C[C@@]31C[C@@H]3/C=C\CCCCN3[C@H]12 [MANZAMINE A HCL] | 0.0067 µg/mL | 0.36 µg/mL | 0.35 µg/mL | 0.37 µg/mL | Activity (MCF7): 0.41 µg/mL; Activity (SF-268): 0.42 µg/mL; Activity [1]: 99%; MIC ([1]; Mycobacterium tuberculosis): 6.25 µg/mL; Activity (DU-145): 0.6 µg/mL; IC50 (Vero): 1.7 µg/mL |
| C\C(=C/C=C/C(C)=C1/C(=O)C[C@H]2[C@@]3(C)CCC(=O)C(C)(C)[C@@H]3CC[C@]12C)c1ccc(C)c(=O)o1 [STELLETIN A] | 0.012 µg/mL | – | 0.078 µg/mL | – | Activity (MCF7): 0.752 µg/mL |
| CC(/C=C/C=C(\C)c1ccc(C)c(=O)o1)=C1/C(=O)C[C@H]2[C@@]3(C)CCC(=O)C(C)(C)[C@@H]3CC[C@]12C [STELLETTIN B] | 0.037 µg/mL | – | – | – | – |
| N#Cc1cn([C@@H]2O[C@H](CO)[C@@H](O)[C@H]2O)c2ncnc(N)c12 [TOYOCAMYCIN] | 0.0023 µg/mL | – | – | – | – |
| C[C@H]1[C@H](C)CC[C@]2(C(=O)O)CC[C@]3(C)C(=CC[C@@H]4[C@@]5(C)CC[C@H](O)C(C)(C)[C@@H]5CC[C@]43C)[C@H]12 [URSOLIC ACID] | >1 µg/mL | – | – | – | – |

— ChEMBL document CHEMBL1142397, “Antineoplastic agents. 536. New sources of naturally occurring cancer cell growth inhibitors from marine organisms, terrestrial plants, and microorganisms(1a,)” (J Nat Prod, 2008)
